Measured values from the supplement of paper PMC10307832.

How the values were obtained:
Assay in all cases: relative viability (nuclei count vs DMSO), 5 days (fraction); higher = more cells survive
Pemetrexed + Bortezomib = compound: Nc1nc2[nH]cc(CCc3ccc(C(=O)N[C@@H](CCC(=O)O)C(=O)O)cc3)c2c(=O)[nH]1 [Pemetrexed] + CC(C)C[C@H](NC(=O)[C@H](Cc1ccccc1)NC(=O)c1cnccn1)B(O)O [Bortezomib] (partner 0.002 µM)
Method in brief: (§1)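 For relative viability, nuclei counts in treated wells were divided by those in vehicle wells. Lung cancer cell lines had been pin-tool dosed in 1536-well plates the day after seeding and cultured for 5 days, then fixed and stained in one step (final 0.05% Triton X-100, 1% formaldehyde, 1 ug/ml Hoechst) and imaged at 4×. Doses were one drug alone or a fixed anchor-drug dose plus five library-drug doses (not always all listed) in √10 steps, and values are duplicate-plate medians.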

Pemetrexed + Crizotinib = compound: Nc1nc2[nH]cc(CCc3ccc(C(=O)N[C@@H](CCC(=O)O)C(=O)O)cc3)c2c(=O)[nH]1 [Pemetrexed] + C[C@@H](Oc1cc(-c2cnn(C3CCNCC3)c2)cnc1N)c1c(Cl)ccc(F)c1Cl [Crizotinib] (partner 1 µM)
Method in brief: as §1

Pemetrexed + Alpelisib = compound: Nc1nc2[nH]cc(CCc3ccc(C(=O)N[C@@H](CCC(=O)O)C(=O)O)cc3)c2c(=O)[nH]1 [Pemetrexed] + Cc1nc(NC(=O)N2CCC[C@H]2C(N)=O)sc1-c1ccnc(C(C)(C)C(F)(F)F)c1 [Alpelisib] (partner 2 µM)
Method in brief: as §1

Pemetrexed + Dasatinib = compound: Nc1nc2[nH]cc(CCc3ccc(C(=O)N[C@@H](CCC(=O)O)C(=O)O)cc3)c2c(=O)[nH]1 [Pemetrexed] + Cc1nc(Nc2ncc(C(=O)Nc3c(C)cccc3Cl)s2)cc(N2CCN(CCO)CC2)n1 [Dasatinib] (partner 0.075 µM)
Method in brief: as §1

## SW 1573
Pemetrexed + Bortezomib; first compound 0.002 µM
  relative viability: 1.1
Pemetrexed + Bortezomib; first compound 0.006325 µM
  relative viability: 0.881
Pemetrexed + Bortezomib; first compound 0.02 µM
  relative viability: 1.11
Pemetrexed + Bortezomib; first compound 0.06325 µM
  relative viability: 0.896
Pemetrexed + Bortezomib; first compound 0.2 µM
  relative viability: 1.04
Pemetrexed + Crizotinib; first compound 0.002 µM
  relative viability: 0.658
Pemetrexed + Crizotinib; first compound 0.006325 µM
  relative viability: 0.79
Pemetrexed + Crizotinib; first compound 0.02 µM
  relative viability: 0.919
Pemetrexed + Crizotinib; first compound 0.06325 µM
  relative viability: 0.888
Pemetrexed + Crizotinib; first compound 0.2 µM
  relative viability: 0.791
Pemetrexed + Alpelisib; first compound 0.002 µM
  relative viability: 0.826
Pemetrexed + Alpelisib; first compound 0.006325 µM
  relative viability: 0.741
Pemetrexed + Alpelisib; first compound 0.02 µM
  relative viability: 0.723
Pemetrexed + Alpelisib; first compound 0.06325 µM
  relative viability: 0.733
Pemetrexed + Alpelisib; first compound 0.2 µM
  relative viability: 0.76
Pemetrexed + Dasatinib; first compound 0.002 µM
  relative viability: 0.524
Pemetrexed + Dasatinib; first compound 0.006325 µM
  relative viability: 0.448
Pemetrexed + Dasatinib; first compound 0.02 µM
  relative viability: 0.735
Pemetrexed + Dasatinib; first compound 0.06325 µM
  relative viability: 0.593
Pemetrexed + Dasatinib; first compound 0.2 µM
  relative viability: 0.42

## NCI-H838
Pemetrexed + Bortezomib; first compound 0.002 µM
  relative viability: 0.895
Pemetrexed + Bortezomib; first compound 0.006325 µM
  relative viability: 0.708
Pemetrexed + Bortezomib; first compound 0.02 µM
  relative viability: 1.07
Pemetrexed + Bortezomib; first compound 0.06325 µM
  relative viability: 0.63
Pemetrexed + Bortezomib; first compound 0.2 µM
  relative viability: 0.208
Pemetrexed + Crizotinib; first compound 0.002 µM
  relative viability: 0.83
Pemetrexed + Crizotinib; first compound 0.006325 µM
  relative viability: 0.814
Pemetrexed + Crizotinib; first compound 0.02 µM
  relative viability: 1.03
Pemetrexed + Crizotinib; first compound 0.06325 µM
  relative viability: 0.935
Pemetrexed + Crizotinib; first compound 0.2 µM
  relative viability: 0.415
Pemetrexed + Alpelisib; first compound 0.002 µM
  relative viability: 0.989
Pemetrexed + Alpelisib; first compound 0.006325 µM
  relative viability: 0.878
Pemetrexed + Alpelisib; first compound 0.02 µM
  relative viability: 1.14
Pemetrexed + Alpelisib; first compound 0.06325 µM
  relative viability: 0.934
Pemetrexed + Alpelisib; first compound 0.2 µM
  relative viability: 0.372
Pemetrexed + Dasatinib; first compound 0.002 µM
  relative viability: 0.361
Pemetrexed + Dasatinib; first compound 0.006325 µM
  relative viability: 0.285
Pemetrexed + Dasatinib; first compound 0.02 µM
  relative viability: 0.262
Pemetrexed + Dasatinib; first compound 0.06325 µM
  relative viability: 0.212
Pemetrexed + Dasatinib; first compound 0.2 µM
  relative viability: 0.218

## RERF-LC-KJ
Pemetrexed + Bortezomib; first compound 0.002 µM
  relative viability: 1.13
Pemetrexed + Bortezomib; first compound 0.006325 µM
  relative viability: 1.06
Pemetrexed + Bortezomib; first compound 0.02 µM
  relative viability: 1.13
Pemetrexed + Bortezomib; first compound 0.06325 µM
  relative viability: 1.04
Pemetrexed + Bortezomib; first compound 0.2 µM
  relative viability: 0.82
Pemetrexed + Crizotinib; first compound 0.002 µM
  relative viability: 0.89
Pemetrexed + Crizotinib; first compound 0.006325 µM
  relative viability: 0.852
Pemetrexed + Crizotinib; first compound 0.02 µM
  relative viability: 0.878
Pemetrexed + Crizotinib; first compound 0.06325 µM
  relative viability: 0.832
Pemetrexed + Crizotinib; first compound 0.2 µM
  relative viability: 0.805
Pemetrexed + Alpelisib; first compound 0.002 µM
  relative viability: 1.12
Pemetrexed + Alpelisib; first compound 0.006325 µM
  relative viability: 0.774
Pemetrexed + Alpelisib; first compound 0.02 µM
  relative viability: 0.84
Pemetrexed + Alpelisib; first compound 0.06325 µM
  relative viability: 0.868
Pemetrexed + Alpelisib; first compound 0.2 µM
  relative viability: 0.538
Pemetrexed + Dasatinib; first compound 0.002 µM
  relative viability: 0.767
Pemetrexed + Dasatinib; first compound 0.006325 µM
  relative viability: 0.881
Pemetrexed + Dasatinib; first compound 0.02 µM
  relative viability: 0.856
Pemetrexed + Dasatinib; first compound 0.06325 µM
  relative viability: 0.849
Pemetrexed + Dasatinib; first compound 0.2 µM
  relative viability: 0.382

## NCI-H441
Pemetrexed + Bortezomib; first compound 0.002 µM
  relative viability: 0.572
Pemetrexed + Bortezomib; first compound 0.006325 µM
  relative viability: 0.602
Pemetrexed + Bortezomib; first compound 0.02 µM
  relative viability: 0.914
Pemetrexed + Bortezomib; first compound 0.06325 µM
  relative viability: 0.825
Pemetrexed + Bortezomib; first compound 0.2 µM
  relative viability: 0.389
Pemetrexed + Crizotinib; first compound 0.002 µM
  relative viability: 0.608
Pemetrexed + Crizotinib; first compound 0.006325 µM
  relative viability: 0.777
Pemetrexed + Crizotinib; first compound 0.02 µM
  relative viability: 0.865
Pemetrexed + Crizotinib; first compound 0.06325 µM
  relative viability: 0.567
Pemetrexed + Crizotinib; first compound 0.2 µM
  relative viability: 0.396
Pemetrexed + Alpelisib; first compound 0.002 µM
  relative viability: 0.667
Pemetrexed + Alpelisib; first compound 0.006325 µM
  relative viability: 0.686
Pemetrexed + Alpelisib; first compound 0.02 µM
  relative viability: 0.932
Pemetrexed + Alpelisib; first compound 0.06325 µM
  relative viability: 0.531
Pemetrexed + Alpelisib; first compound 0.2 µM
  relative viability: 0.53
Pemetrexed + Dasatinib; first compound 0.002 µM
  relative viability: 0.429
Pemetrexed + Dasatinib; first compound 0.006325 µM
  relative viability: 0.573
Pemetrexed + Dasatinib; first compound 0.02 µM
  relative viability: 0.556
Pemetrexed + Dasatinib; first compound 0.06325 µM
  relative viability: 0.392
Pemetrexed + Dasatinib; first compound 0.2 µM
  relative viability: 0.273

## PC-14
Pemetrexed + Bortezomib; first compound 0.002 µM
  relative viability: 0.873
Pemetrexed + Bortezomib; first compound 0.006325 µM
  relative viability: 0.85
Pemetrexed + Bortezomib; first compound 0.02 µM
  relative viability: 0.808
Pemetrexed + Bortezomib; first compound 0.06325 µM
  relative viability: 0.544
Pemetrexed + Bortezomib; first compound 0.2 µM
  relative viability: 0.188
Pemetrexed + Crizotinib; first compound 0.002 µM
  relative viability: 0.86
Pemetrexed + Crizotinib; first compound 0.006325 µM
  relative viability: 0.888
Pemetrexed + Crizotinib; first compound 0.02 µM
  relative viability: 0.838
Pemetrexed + Crizotinib; first compound 0.06325 µM
  relative viability: 0.709
Pemetrexed + Crizotinib; first compound 0.2 µM
  relative viability: 0.207
Pemetrexed + Alpelisib; first compound 0.002 µM
  relative viability: 0.897
Pemetrexed + Alpelisib; first compound 0.006325 µM
  relative viability: 0.958
Pemetrexed + Alpelisib; first compound 0.02 µM
  relative viability: 0.931
Pemetrexed + Alpelisib; first compound 0.06325 µM
  relative viability: 0.535
Pemetrexed + Alpelisib; first compound 0.2 µM
  relative viability: 0.158
Pemetrexed + Dasatinib; first compound 0.002 µM
  relative viability: 0.249
Pemetrexed + Dasatinib; first compound 0.006325 µM
  relative viability: 0.242
Pemetrexed + Dasatinib; first compound 0.02 µM
  relative viability: 0.316
Pemetrexed + Dasatinib; first compound 0.06325 µM
  relative viability: 0.0953
Pemetrexed + Dasatinib; first compound 0.2 µM
  relative viability: 0.0482

## NCI-H2009
Pemetrexed + Bortezomib; first compound 0.002 µM
  relative viability: 0.911
Pemetrexed + Bortezomib; first compound 0.006325 µM
  relative viability: 0.954
Pemetrexed + Bortezomib; first compound 0.02 µM
  relative viability: 1.15
Pemetrexed + Bortezomib; first compound 0.06325 µM
  relative viability: 0.974
Pemetrexed + Bortezomib; first compound 0.2 µM
  relative viability: 1
Pemetrexed + Crizotinib; first compound 0.002 µM
  relative viability: 1.01
Pemetrexed + Crizotinib; first compound 0.006325 µM
  relative viability: 1.04
Pemetrexed + Crizotinib; first compound 0.02 µM
  relative viability: 1.01
Pemetrexed + Crizotinib; first compound 0.06325 µM
  relative viability: 1.06
Pemetrexed + Crizotinib; first compound 0.2 µM
  relative viability: 1.04
Pemetrexed + Alpelisib; first compound 0.002 µM
  relative viability: 1.15
Pemetrexed + Alpelisib; first compound 0.006325 µM
  relative viability: 1.13
Pemetrexed + Alpelisib; first compound 0.02 µM
  relative viability: 1.22
Pemetrexed + Alpelisib; first compound 0.06325 µM
  relative viability: 1.12
Pemetrexed + Alpelisib; first compound 0.2 µM
  relative viability: 1.08
Pemetrexed + Dasatinib; first compound 0.002 µM
  relative viability: 0.299
Pemetrexed + Dasatinib; first compound 0.006325 µM
  relative viability: 0.289
Pemetrexed + Dasatinib; first compound 0.02 µM
  relative viability: 0.377
Pemetrexed + Dasatinib; first compound 0.06325 µM
  relative viability: 0.265
Pemetrexed + Dasatinib; first compound 0.2 µM
  relative viability: 0.307

## NCI-H1437
Pemetrexed + Bortezomib; first compound 0.002 µM
  relative viability: 0.31
Pemetrexed + Bortezomib; first compound 0.006325 µM
  relative viability: 0.478
Pemetrexed + Bortezomib; first compound 0.02 µM
  relative viability: 0.514
Pemetrexed + Bortezomib; first compound 0.06325 µM
  relative viability: 0.313
Pemetrexed + Bortezomib; first compound 0.2 µM
  relative viability: 0.26
Pemetrexed + Crizotinib; first compound 0.002 µM
  relative viability: 0.948
Pemetrexed + Crizotinib; first compound 0.006325 µM
  relative viability: 0.854
Pemetrexed + Crizotinib; first compound 0.02 µM
  relative viability: 0.965
Pemetrexed + Crizotinib; first compound 0.06325 µM
  relative viability: 0.586
Pemetrexed + Crizotinib; first compound 0.2 µM
  relative viability: 0.281
Pemetrexed + Alpelisib; first compound 0.002 µM
  relative viability: 0.877
Pemetrexed + Alpelisib; first compound 0.006325 µM
  relative viability: 0.939
Pemetrexed + Alpelisib; first compound 0.02 µM
  relative viability: 0.884
Pemetrexed + Alpelisib; first compound 0.06325 µM
  relative viability: 0.506
Pemetrexed + Alpelisib; first compound 0.2 µM
  relative viability: 0.227
Pemetrexed + Dasatinib; first compound 0.006325 µM
  relative viability: 0.473
Pemetrexed + Dasatinib; first compound 0.02 µM
  relative viability: 0.468
Pemetrexed + Dasatinib; first compound 0.06325 µM
  relative viability: 0.334
Pemetrexed + Dasatinib; first compound 0.2 µM
  relative viability: 0.21

## NCI-H647
Pemetrexed + Bortezomib; first compound 0.006325 µM
  relative viability: 1.07
Pemetrexed + Bortezomib; first compound 0.02 µM
  relative viability: 1.35
Pemetrexed + Bortezomib; first compound 0.06325 µM
  relative viability: 0.703
Pemetrexed + Bortezomib; first compound 0.2 µM
  relative viability: 0.295
Pemetrexed + Crizotinib; first compound 0.006325 µM
  relative viability: 0.921
Pemetrexed + Crizotinib; first compound 0.02 µM
  relative viability: 1.14
Pemetrexed + Crizotinib; first compound 0.06325 µM
  relative viability: 0.785
Pemetrexed + Crizotinib; first compound 0.2 µM
  relative viability: 0.32
Pemetrexed + Alpelisib; first compound 0.006325 µM
  relative viability: 1.02
Pemetrexed + Alpelisib; first compound 0.02 µM
  relative viability: 1.3
Pemetrexed + Alpelisib; first compound 0.06325 µM
  relative viability: 0.836
Pemetrexed + Alpelisib; first compound 0.2 µM
  relative viability: 0.296
Pemetrexed + Dasatinib; first compound 0.002 µM
  relative viability: 0.151
Pemetrexed + Dasatinib; first compound 0.006325 µM
  relative viability: 0.16
Pemetrexed + Dasatinib; first compound 0.02 µM
  relative viability: 0.175
Pemetrexed + Dasatinib; first compound 0.06325 µM
  relative viability: 0.156
Pemetrexed + Dasatinib; first compound 0.2 µM
  relative viability: 0.127
